Results reported in patent publication US10329294B2, “Pyrazolopyrimidine inhibitors of IRAK4 activity” (MERCK SHARP & DOHME CORP., priority 2015, dated 2019).
Counter-ions that a name gives are not always drawn. Like-named read-outs stand apart in the source and are kept apart here.

Target: IRAK4 (Homo sapiens (Human), UniProt Q9NWZ3)
Assay: IRAK4 Kinase Assay
Type: biochemical
Settings: IMAP fluorescence polarization, 0.5 nM GST tagged IRAK4, 100 μM ATP, 30 minutes at 25° C.

Chain of IRAK4 (Q9NWZ3 whole entry): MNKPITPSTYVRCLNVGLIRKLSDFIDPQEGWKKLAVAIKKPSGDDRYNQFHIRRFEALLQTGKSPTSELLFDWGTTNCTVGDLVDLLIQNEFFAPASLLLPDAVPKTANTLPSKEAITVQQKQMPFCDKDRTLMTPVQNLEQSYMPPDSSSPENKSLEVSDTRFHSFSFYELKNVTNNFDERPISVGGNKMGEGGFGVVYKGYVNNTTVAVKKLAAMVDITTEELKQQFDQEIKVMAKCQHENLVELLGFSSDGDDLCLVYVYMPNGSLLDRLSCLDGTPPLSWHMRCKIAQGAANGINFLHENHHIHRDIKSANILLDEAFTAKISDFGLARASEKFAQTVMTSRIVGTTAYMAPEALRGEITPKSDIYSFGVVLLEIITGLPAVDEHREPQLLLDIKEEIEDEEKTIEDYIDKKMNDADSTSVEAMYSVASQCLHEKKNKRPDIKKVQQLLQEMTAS

Row | SMILES | IC50 (IRAK4 IC50 (nM)) [nM] | IC50 (read-out: IRAK4 IC50) [nM]
1 | Cn1cc(NC(=O)c2cnn3ccc(N4CCNC5(CC4)CC5)nc23)c(C(F)(F)F)n1 [Example 220, 5-(4,7-diazaspiro[2.6]non-7-yl)-N-[1-methyl-3-(trifluoromethyl)-1H-pyrazol-4-yl]pyrazolo[1,5-a]pyrimidine-3-carboxamide trifluoroacetate] | 153 | –
2 | Cn1cc(NC(=O)c2cnn3ccc(N4CC5CNC(C5)C4)nc23)c(C(F)(F)F)n1 (stereo not shown) [Example 223, 5-(3,6-diazabicyclo[3.2.1]oct-3-yl)-N-[1-methyl-3-(trifluoromethyl)-1H-pyrazol-4-yl]pyrazolo[1,5-a]pyrimidine-3-carboxamide trifluoroacetate] | – | 57
3 | Cn1cc(NC(=O)c2cnn3ccc(N4C5CCC4CNC5)nc23)c(C(F)(F)F)n1 [Example 226, 5-(3,8-diazabicyclo[3.2.1]oct-8-yl)-N-[1-methyl-3-(trifluoromethyl)-1H-pyrazol-4-yl]pyrazolo[1,5-a]pyrimidine-3-carboxamide trifluoroacetate] | – | 2
4 | Cn1cc(NC(=O)c2cnn3ccc(N4CCCNC5(CC5)C4)nc23)c(C(F)(F)F)n1 [Example 227, 5-(4,8-diazaspiro[2.6]non-8-yl)-N-[1-methyl-3-(trifluoromethyl)-1H-pyrazol-4-yl]pyrazolo[1,5-a]pyrimidine-3-carboxamide] | – | 451
5 | Cn1cc(NC(=O)c2cnn3ccc(N4C5CCC4CNC5)nc23)c(C(F)F)n1 [Example 229, 5-(3,8-diazabicyclo[3.2.1]oct-8-yl)-N-[3-(difluoromethyl)-1-methyl-1H-pyrazol-4-yl]pyrazolo[1,5-a]pyrimidine-3-carboxamide trifluoroacetate] | – | 0.5
6 | Cn1cc(NC(=O)c2cnn3ccc(N4CC5CNCC4C5)nc23)c(C(F)F)n1 (stereo not shown) [Example 238, 5-[3,6-diazabicyclo[3.2.1]oct-6-yl]-N-[3-(difluoromethyl)-1-methyl-1H-pyrazol-4-yl]pyrazolo[1,5-a]pyrimidine-3-carboxamide] | – | 4
7 | Cn1cc(NC(=O)c2cnn3ccc(N4C[C@@H](N)C[C@H](F)C4)nc23)c(C(F)F)n1 [Example 248, 5-[(3S,5S)-3-amino-5-fluoropiperidin-1-yl]-N-[3-(difluoromethyl)-1-methyl-1H-pyrazol-4-yl]pyrazolo[1,5-a]pyrimidine-3-carboxamide trifluoroacetate] | – | 0.9
8 | Cn1cc(NC(=O)c2cnn3ccc(N4C[C@@H](N)C[C@@H](F)C4)nc23)c(C(F)F)n1 [Example 249, 5-[(3S,5R)-3-amino-5-fluoropiperidin-1-yl]-N-[3-(difluoromethyl)-1-methyl-1H-pyrazol-4-yl]pyrazolo[1,5-a]pyrimidine-3-carboxamide trifluoroacetate] | – | 1
9 | Cn1cc(NC(=O)c2cnn3ccc(N4C[C@H](N)C[C@H](F)C4)nc23)c(C(F)F)n1 [Example 251, 5-[(3R,5S)-3-amino-5-fluoropiperidin-1-yl]-N-[3-(difluoromethyl)-1-methyl-1H-pyrazol-4-yl]pyrazolo[1,5-a]pyrimidine-3-carboxamide trifluoroacetate] | – | 0.7
10 | Cn1cc(NC(=O)c2cnn3ccc(N4C[C@H](N)C[C@@H](F)C4)nc23)c(C(F)F)n1 [Example 253, 5-[(3R,5R)-3-amino-5-fluoropiperidin-1-yl]-N-[3-(difluoromethyl)-1-methyl-1H-pyrazol-4-yl]pyrazolo[1,5-a]pyrimidine-3-carboxamide trifluoroacetate] | – | 0.5
11 | Cn1cc(NC(=O)c2cnn3ccc(N[C@@H]4CNC[C@H](F)C4)nc23)c(C(F)(F)F)n1 [Example 254, 5-(((3S,5R)-5-Fluoropiperidin-3-yl)amino)-N-(1-methyl-3-(trifluoromethyl)-1H-pyrazol-4-yl)pyrazolo[1,5-a]pyrimidine-3-carboxamide] | – | 876
12 | Cn1cc(NC(=O)c2cnn3ccc(N[C@@H]4CNC[C@@H](F)C4)nc23)c(C(F)(F)F)n1 [Example 255, 5-{[(3S,5S)-5-fluoropiperidin-3-yl]amino}-N-[1-methyl-3-(trifluoromethyl)-1H-pyrazol-4-yl]pyrazolo[1,5-a]pyrimidine-3-carboxamide] | – | 36
13 | Cn1cc(NC(=O)c2cnn3ccc(N[C@@H]4CNC[C@@H](F)C4)nc23)c(C(F)F)n1 [Example 256, N-[3-(difluoromethyl)-1-methyl-1H-pyrazol-4-yl]-5-{[(3S,5S)-5-fluoropiperidin-3-yl]amino}pyrazolo[1,5-a]pyrimidine-3-carboxamide] | – | 8
14 | Cn1cc(NC(=O)c2cnn3ccc(N[C@H]4CNC[C@@H](F)C4)nc23)c(C(F)(F)F)n1 [Example 257, 5-{[(3R,5S)-5-fluoropiperidin-3-yl]amino}-N-[1-methyl-3-(trifluoromethyl)-1H-pyrazol-4-yl]pyrazolo[1,5-a]pyrimidine-3-carboxamide hydrochloride] | – | 0.6
15 | Cn1cc(NC(=O)c2cnn3ccc(N[C@H]4CNC[C@@H](F)C4)nc23)c(C(F)F)n1 [Example 258, N-[3-(difluoromethyl)-1-methyl-1H-pyrazol-4-yl]-5-{[(3R,5S)-5-fluoropiperidin-3-yl]amino}pyrazolo[1,5-a]pyrimidine-3-carboxamide hydrochloride] | – | 0.5
16 | Cn1cc(NC(=O)c2cnn3ccc(N[C@@H]4CNC[C@H](F)C4)nc23)c(C(F)F)n1 [Example 259, N-[3-(difluoromethyl)-1-methyl-1H-pyrazol-4-yl]-5-{[(3S,5R)-5-fluoropiperidin-3-yl]amino}pyrazolo[1,5-a]pyrimidine-3-carboxamide] | – | 156

Row | SMILES | IC50 (IRAK4 IC50 (nM)) [nM] | IC50 (read-out: IRAK4 IC50) [nM]
17 | Cn1cc(NC(=O)c2cnn3ccc(N[C@H]4CNC[C@H](F)C4)nc23)c(C(F)(F)F)n1 [Example 260, 5-{[(3R,5R)-5-fluoropiperidin-3-yl]amino}-N-[1-methyl-3-(trifluoromethyl)-1H-pyrazol-4-yl]pyrazolo[1,5-a]pyrimidine-3-carboxamide] | – | 4
18 | Cn1cc(NC(=O)c2cnn3ccc(N[C@H]4CNC[C@H](F)C4)nc23)c(C(F)F)n1 [Example 261, N-[3-(difluoromethyl)-1-methyl-1H-pyrazol-4-yl]-5-{[(3R,5R)-5-fluoropiperidin-3-yl]amino}pyrazolo[1,5-a]pyrimidine-3-carboxamide trifluoroacetate] | – | 0.5
19 | CN[C@H]1CCCC[C@H]1Nc1ccn2ncc(C(=O)Nc3cn(C)nc3C(F)(F)F)c2n1 [Example 262, N-(1-Methyl-3-(trifluoromethyl)-1H-pyrazol-4-yl)-5-(((1R,2S)-2-(methylamino)cyclohexyl)amino)pyrazolo[1,5-a]pyrimidine-3-carboxamide] | – | 24
20 | CN(C)[C@H]1CCCC[C@H]1Nc1ccn2ncc(C(=O)Nc3cn(C)nc3C(F)(F)F)c2n1 [Example 263, 5-(((1R,2S)-2-(Dimethylamino)cyclohexyl)amino)-N-(1-methyl-3-(trifluoromethyl)-1H-pyrazol-4-yl)pyrazolo[1,5-a]pyrimidine-3-carboxamide] | – | 72
21 | Cn1cc(NC(=O)c2cnn3ccc(N[C@@H]4CCCC[C@@H]4N4CCOCC4)nc23)c(C(F)(F)F)n1 [Example 264, N-(1-Methyl-3-(trifluoromethyl)-1H-pyrazol-4-yl)-5-(((1R,2S)-2-morpholinocyclohexyl)amino)pyrazolo[1,5-a]pyrimidine-3-carboxamide] | – | 19
22 | N#Cc1ccccc1NC(=O)c1cnn2ccc(N[C@@H]3CCCC[C@@H]3N)nc12 [Example 265, 5-(((1R,2S)-2-Aminocyclohexyl)amino)-N-(2-cyanophenyl)pyrazolo[1,5-a]pyrimidine-3-carboxamide] | – | 1
23 | N#Cc1ccccc1NC(=O)c1cnn2ccc(N[C@@H]3CCCC[C@@H]3O)nc12 [Example 266, N-(2-cyanophenyl)-5-{[(1R,2S)-2-hydroxycyclohexyl]amino}pyrazolo[1,5-a]pyrimidine-3-carboxamide trifluoroacetate] | – | 562
24 | N#Cc1ccccc1NC(=O)c1cnn2ccc(N3CCNCC4(CC4)C3)nc12 [Example 267, N-(2-cyanophenyl)-5-(5,8-diazaspiro[2.6]non-5-yl)pyrazolo[1,5-a]pyrimidine-3-carboxamide trifluoroacetate] | – | 351
25 | N#Cc1ccccc1NC(=O)c1cnn2ccc(N[C@@H]3CCCC(F)(F)[C@@H]3N)nc12 [Example 268, 5-{[(1R,2R)-2-amino-3,3-difluorocyclohexyl]amino}-N-(2-cyanophenyl)pyrazolo[1,5-a]pyrimidine-3-carboxamide] | – | 268
26 | N#Cc1ccccc1NC(=O)c1cnn2ccc(N3CCC[C@@H](N)C3)nc12 [Example 269, 5-[(3R)-3-aminopiperidin-1-yl]-N-(2-cyanophenyl)pyrazolo[1,5-a]pyrimidine-3-carboxamide trifluoroacetate] | – | 143
27 | N#Cc1ccccc1NC(=O)c1cnn2ccc(N[C@@H]3CCCNC3)nc12 [Example 270, N-(2-cyanophenyl)-5-[(3R)-piperidin-3-ylamino]pyrazolo[1,5-a]pyrimidine-3-carboxamide trifluoroacetate] | – | 10
28 | N#Cc1ccccc1NC(=O)c1cnn2ccc(N3CC4CCC3CN4)nc12 (stereo not shown) [Example 271, N-(2-cyanophenyl)-5-(2,5-diazabicyclo[2.2.2]oct-2-yl)pyrazolo[1,5-a]pyrimidine-3-carboxamide trifluoroacetate] | – | 403
29 | N#Cc1ccccc1NC(=O)c1cnn2ccc(NC3CCCCNC3)nc12 (stereo not shown) [Example 272, 5-(azepan-3-ylamino)-N-(2-cyanophenyl)pyrazolo[1,5-a]pyrimidine-3-carboxamide trifluoroacetate] | – | 57
30 | N#Cc1ccccc1NC(=O)c1cnn2ccc(N3CCCNCC3)nc12 [Example 273, N-(2-cyanophenyl)-5-(1,4-diazepan-1-yl)pyrazolo[1,5-a]pyrimidine-3-carboxamide trifluoroacetate] | – | 1360
31 | N#Cc1ccccc1NC(=O)c1cnn2ccc(N3CCNCC3)nc12 [Example 274, N-(2-cyanophenyl)-5-piperazin-1-ylpyrazolo[1,5-a]pyrimidine-3-carboxamide trifluoroacetate] | – | 660
